Here are results for five molecules from ChEMBL document CHEMBL3102693 (ACS Med Chem Lett, 2013).

≈ marks a conversion by molar mass, not a printed value.

The first assay deals with Mycobacterium tuberculosis. In words: Antimicrobial activity against Mycobacterium tuberculosis H37Rv after 10 to 14 days by broth microdilution assay. The class given is functional. Background: In broth dilution the organism is exposed to a series of concentrations in liquid medium.
Broadly, the MIC90 is the lowest concentration that inhibits either 90% of growth or 90% of the strains tested, depending on the study. Read a high MIC90 as weaker potency. Consider `Nc1ncnc2c1ncn2[C@@H]1O[C@H](CNS(=O)(=O)NC(=O)CCCC[C@@H]2SC[C@@H]3NC(=O)N[C@@H]32)[C@@H](O)[C@H]1O`, for which the MIC90 is 0.78 µM (≈ 0.446 µg/mL). `Nc1ncnc2c1ncn2[C@@H]1O[C@H](CCS(=O)(=O)NC(=O)CCCC[C@@H]2SC[C@@H]3NC(=O)N[C@@H]32)[C@@H](O)[C@H]1O` gave an MIC90 of 3.12 µM (≈ 1.78 µg/mL).

For the molecule `Nc1nccc2c1ncn2[C@@H]1O[C@H](COS(=O)(=O)NC(=O)CCCC[C@@H]2SC[C@@H]3NC(=O)N[C@@H]32)[C@@H](O)[C@H]1O`, the MIC90 amounted to 1.56 µM (≈ 0.892 µg/mL). Molecule `Nc1nc2ccccc2c2c1ncn2[C@@H]1O[C@H](COS(=O)(=O)NC(=O)CCCC[C@@H]2SC[C@@H]3NC(=O)N[C@@H]32)[C@@H](O)[C@H]1O` displayed an MIC90 of more than 100 µM. In turn, `CC(C)(C)C#Cc1nc(N)c2ncn([C@@H]3O[C@H](COS(=O)(=O)NC(=O)CCCC[C@@H]4SC[C@@H]5NC(=O)N[C@@H]54)[C@@H](O)[C@H]3O)c2n1` showed an MIC90 of more than 100 µM.

A further assay has as its target T1, BirA bifunctional protein (Mycobacterium tuberculosis (strain CDC 1551 / Oshkosh), UniProt P96884).
T1 sequence (P96884 whole entry): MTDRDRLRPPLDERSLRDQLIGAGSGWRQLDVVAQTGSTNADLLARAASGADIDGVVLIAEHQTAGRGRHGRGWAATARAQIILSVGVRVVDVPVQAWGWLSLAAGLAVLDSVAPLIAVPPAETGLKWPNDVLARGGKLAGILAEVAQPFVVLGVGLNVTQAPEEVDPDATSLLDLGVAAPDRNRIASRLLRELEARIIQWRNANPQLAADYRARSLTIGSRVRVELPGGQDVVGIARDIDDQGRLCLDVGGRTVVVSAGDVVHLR
In words: Inhibition of biotin binding to Mycobacterium tuberculosis BirA by isothermal titration calorimetry. For orientation: Isothermal titration calorimetry measures the heat released or taken up as one component is titrated into another.
The Kd is the concentration at which binding is half-saturated. `Nc1ncnc2c1ncn2[C@@H]1O[C@H](CCS(=O)(=O)NC(=O)CCCC[C@@H]2SC[C@@H]3NC(=O)N[C@@H]32)[C@@H](O)[C@H]1O` yielded a Kd of 0.1 nM.

In turn, `Nc1nccc2c1ncn2[C@@H]1O[C@H](COS(=O)(=O)NC(=O)CCCC[C@@H]2SC[C@@H]3NC(=O)N[C@@H]32)[C@@H](O)[C@H]1O` yielded a Kd of 0.04 nM. On the same count and under the same terms, under `Nc1nc2ccccc2c2c1ncn2[C@@H]1O[C@H](COS(=O)(=O)NC(=O)CCCC[C@@H]2SC[C@@H]3NC(=O)N[C@@H]32)[C@@H](O)[C@H]1O` stands 0.23 nM. Same read-out and setting: with `CC(C)(C)C#Cc1nc(N)c2ncn([C@@H]3O[C@H](COS(=O)(=O)NC(=O)CCCC[C@@H]4SC[C@@H]5NC(=O)N[C@@H]54)[C@@H](O)[C@H]3O)c2n1` the figure was 11 nM.
